Test results published in paper PMC10811509 (Advanced Science, 2023).
No end group written: not given here.

Legend:
[1] = target: T1, Aβ40 (Homo sapiens, UniProt P05067); test: ITC, APP‐C31 binding to Aβ40; details: read-out: binding affinity (Kd)
T1 construct: purchased Peptide Institute, Inc. (Osaka, Japan) or Anaspec (Fremont, CA, USA)
Description: Titration experiments composed of 28 injections were conducted. The injection volume was 2 µL for the first injection to minimize effects of bubbles and 10 µL for the remaining injections. […] The initial delay was 1800 s and the reference power was 10 µcal s^−1. […] The binding isotherms after baseline correction were fitted to the one set of sites binding model incorporated in the MicroCal Origin 7.0 software.^[ [84] ^]
Figure S10. Interaction of Ab40 with APP-C31 monitored by ITC. The ITC thermogram (upper panel) and binding isotherm (lower panel) were obtained upon titration of APP-C31 into Ab40. The Kd value was calculated from three independent measurements. Conditions: [Ab40] = 30 µM; [APP-C31] = 600 µM; 20

[2] = system: SH‐SY5Y cells; test: Cell viability after microinjection
Description: (§1) Cell survival measurements were described in detail in the experimental section. […] White arrows indicate apoptotic cells microinjected with peptide samples. […] Scale bar = 100 µm.
Experiments were performed at least in triplicate.

[3] = system: SH‐SY5Y cells; test: Annexin V staining (apoptosis) after microinjection; details: 24 h; for Pearson's coefficient (r), annexin V / Texas Red‐labeled dextran: n = 3–5
Description: as §1
After 24 h incubation, the cells were washed with annexin‐binding buffer and stained with annexin V‐Alexa Fluor 488 for detecting apoptosis following the manufacturer's instruction (FITC Annexin V/Dead Cell Apoptosis Kit; V13241, Invitrogen). Fluorescent responses of annexin V and Texas Red‐labeled dextran were identified by a microscope with a GFP light cube [excitation at 470 (±22) nm and emission at 525 (±50) nm] and a Cy5 light cube [excitation at 628 (±40) nm and emission at 685 (±40) nm], respectively. At least five randomly selected fields per conditions were captured with a microscope. Pearson's correlation coefficient for the indication of co‐localization was calculated with the Coloc2 plugin in Fiji software.^[ [79] ^]

[4] = system: human neurons differentiated from H9 human embryonic stem cells; test: Neurite outgrowth in human neurons; type: cell-based
Description: Human neurons were differentiated from neural progenitor cells (NPCs), which are derived from human embryonic stem cells (hESCs), WA09 (also known as H9). hESCs were maintained on inactivated mouse embryonic fibroblasts (MEFs) in hESC‐media comprising DMEM/F12 (GIBCO) with MEM non‐essential amino acids (MEM NEAA; GIBCO), sodium bicarbonate (14 mM; Sigma‐Aldrich), L‐glutamine (1 mM; Sigma‐Aldrich), β‐mercaptoethanol (100 µM; Merck Millipore, Billerica, MA, USA), knockout serum replacement (20% v/v; GIBCO), and bFGF (10 ng mL^−1; R&D systems, McKinley Place, MN, USA). MEFs were collected from E13.5 CrljOri:CD1 (ICR) mice (Orientbio, Seongnam, Republic of Korea) and inactivated with 10 µg mL^−1 of mitomycin C (AG Scientific, San Diego, CA, USA) in 2 h. hESC colonies were dissociated with Collagenase IV and plated onto Petri dishes in hESC‐media to form embryoid bodies (EBs). […] The treatment was continued for a week, followed by plating onto growth factor reduced matrigel (BD biosciences)‐coated dishes in DMEM/F12 + glutamax (GIBCO) with N2 and B27 supplements (N2/B27 media) and laminin (1 mg mL^−1; GIBCO). […]
Human NPCs were differentiated into neurons for 2 d and the media was replaced by fresh media. […] The neurite of a neuron measured from the soma to the tip was analyzed using Neuron J program of Fiji software.^[ [81] ^]

[5] = system: Aβ in hippocampi of C57BL/6J mice; test: Immunohistochemistry of hippocampus after stereotaxic peptide injection, Aβ (6E10, thioflavin‐S); type: in vivo, mouse; details: hippocampal injection of Aβ40 (100 µM) and APP‐C31 (200 µM), 1 µL; 10 days; n = 3
[6] = system: Iba1‐positive microglial cells in hippocampi of C57BL/6J mice; test: Immunohistochemistry of hippocampus after stereotaxic peptide injection, microglia (Iba1); type: in vivo, mouse; details: hippocampal injection of Aβ40 (100 µM) and APP‐C31 (200 µM), 1 µL; 10 days; n = 5
Description: 15 neurons were analyzed per each condition. […] Scale bar = 100 µm. […] Scale bar = 200 µm. f) Quantification results of the 6E10‐positive area and Iba1‐positive cells, calculated based on the fluorescence signals.
All experiments were performed in accordance with approved animal protocols and guidelines established by Korea Research Institute of Bioscience and Biotechnology (KRIBB). C57BL/6J (11 weeks old; 30 g) were anesthetized by the intraperitoneal injection of tribromoethanol (320 mg kg^−1, i.p.) and positioned in a stereotaxic apparatus. […] All infusions were given using a Hamilton syringe equipped with a 26‐gauge beveled needle and attached to a Nanojet stereotaxic syringe pump (Chemyx, Inc., TX, USA). Infusions were delivered at a rate of 0.2 µL min^−1. […]
Mice were perfused with phosphate‐buffered saline (GIBCO) and 4% paraformaldehyde (PFA) solution, and then the brains were post‐fixed with 4% PFA overnight and dehydrated with 30% sucrose solution. […] Immunofluorescence staining was performed as previously described^[ [83] ^] using anti‐Aβ antibody (6E10; 1:1,000), anti‐APP antibody (Y188; 1:500), anti‐Iba1 antibody (1:1,000, Wako Life Sciences Inc., Japan), an appropriate fluorescence‐conjugated secondary antibody, and Hoechst 33 258 (1:10,000; Life Technologies, CA, USA) for counterstaining. […]

[7] = APP‐C31 (10 µM) or Aβ40 (10 µM) alone

T1 sequence (P05067 672-711): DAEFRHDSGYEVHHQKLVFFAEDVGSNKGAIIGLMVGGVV

Sequence: AAVTPEERHLSKMQQNGYENPTYKFFEQMQN [APP‐C31]
- Kd [1]: 150 µM
- cell viability ([2]; 10 µM): 86%
- cell viability ([2]; Cu(II)–Aβ40 (10 µM) with APP‐C31 (10 µM), 24 h, n = 3–5): 78%
- green fluorescence of annexin V [3, 7]: did not significantly show the green fluorescence of annexin V
- Pearson's coefficient (r), annexin V / Texas Red‐labeled dextran [3, 7]: ≈ 0.2
- green fluorescence of annexin V ([3]; both APP‐C31 (10 µM) and Aβ40 (10 µM)): intense green fluorescence of annexin V
- Pearson's coefficient (r), annexin V / Texas Red‐labeled dextran ([3]; both APP‐C31 (10 µM) and Aβ40 (10 µM), **p < 0.01): ≈ 0.6
- averaged neurite length ([4]; Aβ40 20 µM with stoichiometric or suprastoichiometric APP‐C31, 24 h): further decreased
- neurite morphology ([4]; Aβ40 20 µM with various concentrations of APP‐C31, 72 h): fragmentation of neurites
- 6E10‐positive area vs Aβ40 alone [5]: significantly enhanced
- number of Iba1‐positive microglial cells vs Aβ40 only [6]: 3.7 fold
